This is an account of results in patent US11590129B2, “Combination therapy with an antitumor alkaloid” (PHARMA MAR, S.A., priority 2010, dated 2023).

The subject of experiment [1] is IGROV-1 human ovarian adenocarcinoma cell line. Put plainly: cells. To be noted: Homo sapiens, IGROV-1, 72 h. The protocol: (§1) a. […] Briefly, cells were harvested and seeded in 96 well microtiter plates at a density of 5,000 cells in 150 μL of culture medium and incubated for 24 hours in drug-free medium before treatment with vehicle alone or test compounds for 72 h.
(§2) The cytotoxic effect was measured by the MTT reduction assay, in which 3-(4,5-Dimethylthiazol-2-yl)-2,5-diphenyltetrazolium bromide, a tetrazole, which is reduced to purple formazan in the mitochondria of living cells, was used. MTT (50 μL of 1 mg/mL stock solution) was added to the wells and incubated for 8 hours at 37° C. until formazan crystals were formed. After gently removing the culture medium, DMSO was added to dissolve the insoluble purple formazan product into a colored solution. […] Results were expressed as percentage of control cell growth.
(§3) b. In a second set of assays, A549 human tumor cells were incubated with PM01183 in combination with each of the agents mentioned above.
(§4) As a visual aid, response values were plotted on a scatter plot with dose ratios given on the x-axis and % response values on the y-axis. […] In cases where response values at the two endpoints were approximately equivalent, points lying above or below this predicted line of additivity could be interpreted as representing antagonistic or synergistic drug interaction, respectively.
(§5) Additional serial dilutions were prepared in serum-free culture medium to achieve a final 4× concentration. Aliquots of 50 μL of each diluted compound were added per well.
IGROV-1 was the human ovarian adenocarcinoma cell line selected for this assay.

The subject of experiment [2] is MDA-MB-231 human breast adenocarcinoma cell line. The experiment can be described thus: cells. The conditions noted are these: Homo sapiens, MDA-MB-231, 72 h. The procedure: as §1, §2, §3, §4, §5
Experiment [3] deals with RXF-393 human kidney carcinoma cell line. Put plainly: cells. The conditions noted are these: Homo sapiens, RXF 393, 72 h. The procedure: as §1, §2, §3, §4, §5
For experiment [4], the system named is A673 human rhabdomyosarcoma cell line. The experiment can be described thus: cells. To be noted: Homo sapiens, A673, 72 h. The procedure:
as §1, §2, §3, §4, §5
A673 was the human rhabdomyosarcoma cell line selected for this assay.

Experiment [5] deals with A549 human lung carcinoma cell line. Put plainly: MTT cytotoxicity assay in A549 cells: IC50 of single agents and combinations with PM01183. Type of experiment: cell-based. To be noted: Homo sapiens; A549, 72 hours drug exposure, MTT; read-out: IC50. The procedure: as §5
A549 was the human lung carcinoma cell line selected for this assay.
as §1, §2, §3, §4
Background: Tetrazolium assays rely on reduction of a dye to a coloured formazan, in cell work by metabolically active cells.

The test system of experiment [6] is U87-MG human glioblastoma cell line. The experiment can be described thus: cells. The conditions noted are these: Homo sapiens, U-87 MG, 72 h. The protocol: as §1, §2, §3, §4, §5
U87-MG was the human glioblastoma cell line selected for this assay.

The subject of experiment [7] is HepG2 human hepatocellular liver carcinoma cell line. The experiment can be described thus: MTT cytotoxicity assay in HepG2 cells: IC50 of single agents and combinations with PM01183. In kind it is cell-based. The conditions noted are these: Homo sapiens; HepG2, 72 hours drug exposure, MTT; read-out: IC50. The protocol: as §1, §2, §3, §4, §5
HepG2 was the human hepatocellular liver carcinoma cell line selected for this assay.

For experiment [8], the system named is HGC-27 human gastric carcinoma cell line. Put plainly: cells. The conditions noted are these: Homo sapiens, HGC-27, 72 h. The procedure:
as §1, §2, §3, §4, §5
HGC-27 was the human gastric carcinoma cell line selected for this assay.

The test system of another experiment is A2780 tumors. The experiment can be described thus: Human ovarian tumor xenografts (A2780) in athymic nude mice, tumor volume % T/C. Type of experiment: in vivo. The protocol:
(§6) Female athymic nude mice (Harlan Laboratories Models, S.L. (Barcelona, Spain) were utilized for all experiments. Animals were housed in individually ventilated cages, up to ten per cage in a 12-hour light-dark cycle at 21-23° C. and 40-60% humidity. The mice were allowed free access to irradiated standard rodent diet and sterilized water. Animals were acclimated for at least 5 days prior to tumor implantation with a tumor cell suspension.
The formula to calculate volume for a prolate ellipsoid was used to estimate tumor volume (mm^3) from 2-dimensional tumor measurements: Tumor volume (mm^3)=[L×W^2]÷2, where L is the length and it is the longest diameter in mm, and W is the width and it is the shortest diameter in mm of a tumor. Assuming unit density, volume was converted to weight (i.e., 1 mm^3=1 mg). Tumor volume and animal body weights were measured 2-3 times per week starting form the first day of treatment (Day 0).
PM01183 was provided in the form of vials of lyophilized PM01183 cake which was reconstituted with water for infusion to a concentration of 0.2 mg/mL. The PM01183 stock solution was further diluted in 5% glucose solution for injection to the dosing formulation concentrations. […] Vinorelbine was provided as a solution prepared by diluting the product with 0.9% saline solution.
Dose level groups were administered either as single agents or in combination.
(§7) Comparison of the median tumor volume in the treatment groups (T) to the median tumor volume in the control group (T/C×100%) was used for evaluation of the antitumor efficacy.
Day 9 for PM01183 and vinorelbine study) using the median-effect principle (Chou T. C. Pharmacol. Rev.
(In general: A xenograft is tissue or cells of one species grown in another, often human tumour cells in immunodeficient mice.)

Experiment [9] deals with HT-29 human colon adenocarcinoma cell line. Put plainly: cells. The conditions noted are these: Homo sapiens, HT-29, 72 h. The procedure:
as §1, §2, §3, §4, §5
HT-29 was the human colon adenocarcinoma cell line selected for this assay.

The subject of experiment [10] is PC-3 human prostate cancer cell line. Put plainly: cells. To be noted: Homo sapiens, PC-3, 72 h. The procedure: as §1, §2, §3, §4, §5
PC-3 was the human prostate adenocarcinome cell line selected for this assay.

The test system of the next experiment is U87-MG tumors. Put plainly: Human brain tumor xenografts (U87-MG) in athymic nude mice, tumor volume % T/C. In kind it is in vivo. The procedure:
as §6
The tumor model used in these studies was U87-MG cell line, which was obtained from the American Type Culture Collection (ATCC HTB-14™).
U87-MG cells were grown at 37° C. with 5% CO2 in Minimum Essential Medium Eagle (MEME). Each animal was subcutaneously implanted on the right flank, using 26G needle and a 1 cc syringe, with 5×10^6 U87-MG cells, from in vitro passage 5, in 0.05 mL suspension of 50% Matrigel and 50% serum free medium, without antibiotics.
PM01183 was provided in the form of vials of lyophilized PM01183 cake which was reconstituted with water for infusion to a concentration of 0.2 mg/mL. The PM01183 stock solution was further diluted in 5% glucose solution for injection to the dosing formulation concentrations. Temozolomide was provided as a solution prepared by diluting the product in DMSO 10% in 0.9% saline solution for injection to the target final concentration.
In these experiments, PM01183 and temozolomide treatments, as well as placebo, were administered as follows: PM01183, intravenously once per week up to 3 consecutive weeks, on Days 0, 7 and 14, temozolomide orally, in a daily basis during 8 consecutive days (Days 0 to 7), and placebo was administered following the same schedule as those provided for PM01183 and temozolomide. Dose level groups were administered either as single agents or in combination.
as §7

The mark [11] stands for this setting: vinorelbine 4.0 mg/kg iv days 0,7.
Setting [12] is: vinorelbine 8.0 mg/kg iv days 0,7.
Where [13] appears, read: temozolomide 1.5 mg/kg orally daily days 0 to 7.
Where [14] appears, read: temozolomide 3 mg/kg orally daily days 0 to 7.

The IC50 is the concentration that inhibits the measured activity by half. `CC[C@]1(O)C[C@H]2CN(CCc3c([nH]c4ccccc34)[C@@](C(=O)OC)(c3cc4c(cc3OC)N(C=O)[C@H]3[C@@](O)(C(=O)OC)[C@H](OC(C)=O)[C@]5(CC)C=CCN6CC[C@]43[C@@H]65)C2)C1` [Vincristine, vincristine]: the IC50 in [1] is 379 nM; in experiment [2], 50 nM; in experiment [3], 17.3 nM; in experiment [4], 8.6 nM; in [5], 250 nM; in experiment [6], 100 nM. Also, the IC50 worked out at 60 nM in experiment [7] and 12.5 nM in experiment [8].

Regarding `CCC1=C[C@@H]2CN(C1)Cc1c([nH]c3ccccc13)[C@@](C(=O)OC)(c1cc3c(cc1OC)N(C)[C@H]1[C@@](O)(C(=O)OC)[C@H](OC(C)=O)[C@]4(CC)C=CCN5CC[C@]31[C@@H]54)C2` [Vinorelbine, vinorelbine], the “% T/C on day 0” value came to 97.2% with A2780 tumors (setting [11]) and 97.6% with A2780 tumors (setting [12]). Besides, the “% T/C on day 2” value in the experiment with A2780 tumors (setting [11]) stood at 88.6%; with A2780 tumors (setting [12]) it was 79.5%. In addition, the “% T/C on day 5” value in the experiment on A2780 tumors (setting [11]) worked out at 69.3%; in the experiment with A2780 tumors (setting [12]), 45.0%. Moreover, the “% T/C on day 7” value in the experiment on A2780 tumors (setting [11]) was found to be 81.7%; in the experiment on A2780 tumors (setting [12]), 54.2%. Also, the “% T/C on day 9” value in the experiment on A2780 tumors (setting [11]) amounted to 77.3%; in the experiment with A2780 tumors (setting [12]), 47.9%. Besides, the half-inhibitory concentration (IC50) in experiment [1] was found to be 1390 nM; in experiment [2], 12000 nM; in [3], 8500 nM; in [4] it was 50 nM; in experiment [9], 30 nM; in [10], 10000 nM. The values for the IC50 in experiment [7] and in [8] were 1020 nM and 65 nM, respectively.

With `O=C(CCCCCCC(=O)Nc1ccccc1)NO` [Vorinostat, vorinostat], the IC50 came out at 2880 nM in experiment [1] and 2160 nM in [4].

For the compound `Cn1nnc2c(C(N)=O)ncn2c1=O` [temozolomide], the “% T/C on day 0” value in the experiment with U87-MG tumors (Temozolomide 1.0 mg/kg) worked out at 98.2%; in the experiment on U87-MG tumors (Temozolomide 1.5 mg/kg) it was 94.1%; with U87-MG tumors (Temozolomide 3.0 mg/kg), 97.1%. Also, the “% T/C on day 2” value in the experiment with U87-MG tumors (Temozolomide 1.0 mg/kg) was 100.2%; with U87-MG tumors (Temozolomide 1.5 mg/kg) it was 96.9%; in the experiment with U87-MG tumors (Temozolomide 3.0 mg/kg) it was 95.5%. For the same compound, the “% T/C on day 4” value is listed as 65.1% in the experiment with U87-MG tumors (Temozolomide 1.0 mg/kg), 75.6% in the experiment with U87-MG tumors (Temozolomide 1.5 mg/kg) and 67.3% with U87-MG tumors (Temozolomide 3.0 mg/kg). Besides, the “% T/C on day 7” value in the experiment on U87-MG tumors (Temozolomide 1.0 mg/kg) came to 81.2%; in the experiment with U87-MG tumors (Temozolomide 1.5 mg/kg) it was 73.0%; with U87-MG tumors (Temozolomide 3.0 mg/kg), 39.4%. Moreover, the “% T/C on day 9” value is listed as 55.0% with U87-MG tumors (Temozolomide 1.0 mg/kg), 56.5% in the experiment with U87-MG tumors (Temozolomide 1.5 mg/kg) and 25.3% in the experiment on U87-MG tumors (Temozolomide 3.0 mg/kg). In addition, the “% T/C on day 11” value was determined as 63.5% in the experiment on U87-MG tumors (Temozolomide 1.0 mg/kg, day 11); 59.3% in the experiment with U87-MG tumors (Temozolomide 1.5 mg/kg, day 11); 22.9% in the experiment on U87-MG tumors (Temozolomide 3.0 mg/kg, day 11); 59.3% in the experiment with U87-MG tumors (setting [13]); 22.9% in the experiment with U87-MG tumors (setting [14]). For the same compound, the “% T/C on day 14” value in the experiment on U87-MG tumors (Temozolomide 1.0 mg/kg, day 14) was 73.1%; with U87-MG tumors (Temozolomide 1.5 mg/kg, day 14), 50.0%; in the experiment on U87-MG tumors (Temozolomide 3.0 mg/kg, day 14) it was 28.4%; in the experiment with U87-MG tumors (setting [13]), 50.0%; with U87-MG tumors (setting [14]), 28.4%. In addition, the “% T/C on day 16” value in the experiment with U87-MG tumors (Temozolomide 1.0 mg/kg, day 16) was 75.0%; in the experiment on U87-MG tumors (Temozolomide 1.5 mg/kg, day 16), 53.5%; in the experiment on U87-MG tumors (Temozolomide 3.0 mg/kg, day 16) it was 31.5%; in the experiment on U87-MG tumors (setting [13]) it was 53.5%; in the experiment on U87-MG tumors (setting [14]), 31.5%.
